Measured values published in patent publication US10869875B2, “Oxysterols and Hedgehog signaling” (MAX BIOPHARMA, INC., priority 2015, dated 2020).

Assays:
[1] = system: connective tissue growth factor (CTGF); assay: TGFβ1 induced expression of CTGF in NIH3T3 cells (Q-RT-PCR); assay type: cell-based; details: 10 uM, recombinant human TGFβ1 at 20 ng/ml, 48 hours, FIG. 8
Protocol: NIH3T3 cells were treated with recombinant human TGFβ1 at 20 ng/ml in the absence or presence of compound 21 at 10 uM. After 48 hours, RNA was extracted and analyzed by Q-RT-PCR for the expression of connective tissue growth factor (CTGF), a tumorigenic gene.

[2] = system: Hedgehog target gene Gli1; assay: Expression of Hedgehog target gene Gli1 in NIH3T3 cells (quantitative RT-PCR); assay type: cell-based; details: for gene expression of the Hedgehog target gene Gli1: in CM, 5 μM and 10 μM; for gene expression of the Hedgehog target gene Gli1 / Hedgehog signaling (Gli1 gene expression) / Gli1 gene expression relative to CM only / Hedgehog signaling (Gli1 gene expression) compared to the control: NIH3T3 cells; for gene expression of the Hedgehog target gene Gli1 / Hedgehog signaling (Gli1 gene expression): FIG. 7; for Hedgehog signaling (Gli1 gene expression): in the absence of CM; for Hedgehog signaling (Gli1 gene expression) compared to the control: without CM
Protocol: The compounds described herein were tested on cell cultures to assess their effects on Hedgehog target genes PTCH and Gli1. Conditioned medium (CM) was collected from CAPAN-1 human pancreatic tumor cells grown to confluence in DMEM containing 10%0/fetal bovine serium (FBS) and contains Hh proteins that activate the Hh pathway in cells receiving the CM. After 7 days of incubation of confluent cells with the described medium, CM was collected, spun for 5 minutes at 1800 rpm to remove dead cells and debris, and then frozen at −80° C. For treating cells, CM was thawed and diluted 1:2 to 1:6 with DMEM containing 5% FBS. NIH3T3 cells, HepG2 and SUFU−/−MEF cells were cultured in 12-well plates with DMEM containing 10% FBS. The cells were then treated with DMEM containing 5% FBS or CM in the presence or absence of the compounds prepared in DMSO when they reach confluence. Quantitative RT-PCR was then performed according to the following approach. After 72 to 96 hours of the treatments, the cells were lysed and subjected to RNA extraction with RNease Plus Min kit (Qiagen). A portion of RNA from each well was subjected to Reverse Transcription (RT) using iScript Reverse Transcription Supermix (BioRad). QPCR was performed to test the expression of Hh target genes PTCH and Gli1 using IQ SYBR Green Supermix (BioRad).

[3] = 10 μM, in the presence of CM, FIG. 6, result in words

Structure (SMILES) | gene expression of the Hedgehog target gene Gli1 [2] | Hedgehog signaling (Gli1 gene expression) [2] | Hedgehog signaling (Gli1 gene expression) compared to the control ([2]; 10 μM, FIG. 6) | Gli1 gene expression relative to CM only [2, 3] | further results
C[C@]12CC[C@H]3[C@@H](CC=C4C[C@@H](O)CC[C@@]43C)[C@@H]1CC[C@@H]2[C@](C)(O)CCc1cccnc1 [compound 21, (3S,8S,9S,10R,13S,14S,17S)-17-((R)-2-hydroxy-4-(pyridin-3-yl)butan-2-yl)-10,13-dimethyl-2,3,4,7,8,9,10,11,12,13,14,15,16,17-tetradecahydro-1H-cyclopenta[a]phenanthren-3-ol] | decreased | did not |  |  | TGFβ1 induced expression of CTGF [1]: inhibited
C[C@]12CC[C@H]3[C@@H](CC=C4C[C@@H](O)CC[C@@]43C)[C@@H]1CC[C@@H]2[C@@](C)(O)CCc1ccc(F)cc1 [Oxy45, reference compound] |  |  | stimulated Hedgehog signaling |  | Gli1 gene expression relative to CM only ([2]; 5 μM, in the presence of conditioned medium (CM), FIG. 6): more than 2 fold; Gli1 gene expression relative to CM only ([2]; 10 μM, in the presence of conditioned medium (CM), FIG. 6): more than 2 fold
C[C@]12CC[C@H]3[C@@H](CC=C4C[C@@H](O)CC[C@@]43C)[C@@H]1CC[C@@H]2[C@@](C)(O)CCc1cccnc1 [Oxy43, reference compound] | greatly increased | stimulated Hedgehog signaling |  |  | 
C[C@]12CC[C@H]3[C@@H](CC=C4C[C@@H](O)CC[C@@]43C)[C@@H]1CC[C@@H]2[C@](C)(O)CCc1ccc(F)cc1 [compound 4, (3S,8S,9S,10R,13S,14S,17S)-17-((R)-4-(4-fluorophenyl)-2-hydroxybutan-2-yl)-10,13-dimethyl-2,3,4,7,89,10,11,12,13,14,15,16,17-tetradecahydro-1H-cyclopenta[a]phenanthren-3-ol] |  |  | did not show this effect | greatly decreased | 
C[C@]12CC[C@H](O)C[C@@H]1CC[C@@H]1[C@@H]2CC[C@@]2(C)[C@H]1CC[C@@H]2[C@](C)(O)CCc1ccc(F)cc1 [compound 6, (3S,5S,8R,9S,10S,13S,14S,17S)-17-((R)-4-(4-fluorophenyl)-2-hydroxybutan-2-yl)-10,13-dimethylhexadecahydro-1H-cyclopenta[a]phenanthren-3-ol] |  |  | did not show this effect | greatly decreased | Gli1 gene expression relative to CM only ([2]; 5 μM, in the presence of CM, FIG. 6, result in words): greatly decreased; inhibition of Gli1 expression vs. compound 4 ([2]; comparison with compound 4 (C5-C6 double bond, C20 R-stereochemistry), FIG. 1): increased; inhibition of Gli1 expression vs. compound 18 ([2]; comparison with compound 18 (C20 S-stereochemistry, C5-C6 single bond), FIGS. 1 and 3): increased
